Where “and” joins values, the source holds several entries; their conditions need not be identical. Identical values can stand only once. Like-named read-outs stand apart in the source and are kept apart here.
Columns and labels:
Cq-FABP [1] = target: T1, Cq-FABP (Cherax quadricarinatus, UniProt L0I6Z9); assay: ANS fluorescence intensity titration and equilibrium displacement of ANS by fatty acids; type: binding
Experimental: (§1) Fluorescence emission spectra were measured at 25°C on a Cary-Eclipse spectrofluorimeter (Varian, CA, USA) equipped with a thermostated cell holder, using solutions (70 µl) placed in microcuvettes (pathlength, 0.3 cm). The binding of non-fluorescent fatty acids (PA, OA, LA, EPA and DHA) to Cq-FABP was measured indirectly by equilibrium displacement experiments using ANS as a fluorescent probe, either by measuring the fluorescence emission of ANS or by measuring the FRET between tryptophan and ANS, resulting in the quenching of donor fluorescence. The excitation wavelength was then set at 296 or 350 nm for tryptophan or ANS, respectively; the slit widths and PMT voltage were adjusted to optimize the fluorescence signal at 25°C. For titration experiments, the fluorescence emission spectrum of tryptophan or ANS was measured and the integrated fluorescence signal of tryptophan (315–360 nm) or ANS (440–600 nm) was calculated. For samples containing high concentrations of ANS, the inner-filter effect was not negligible and was corrected. UV-visible absorption spectra were carried out on a Uvikon XL spectrophotometer.
The equilibrium dissociation constant (Kd,FA) relative to the binding of fatty acids (FA) to Cq-FABP was determined by competition experiments using ANS displacement and linear regression of the following relationship: [drawing 1] (1) where Kd,ANS is the dissociation constant relative to the binding of ANS to the fatty acid binding site, Kd ^app ,ANS is the apparent dissociation constant of ANS obtained in the presence of a given fatty acid concentration.

Cq-FABP [2] = target: T1, Cq-FABP; assay: Steady-state FRET between the single Trp (W49) and ANS, Trp quenching and recovery by PA; type: binding
Experimental: as §1

Cq-FABP [3] = target: T1, Cq-FABP; assay: Time-resolved Trp fluorescence lifetime (single-photon counting) with ANS and PA; type: binding; settings: for FRET efficiency: from lifetimes; for Δ%FRET,max based on lifetime values: without versus with 70 µM PA
Experimental: The distribution of fluorescence lifetimes of tryptophan was determined by monitoring the intensity decay, I(t), using the single-photon counting technique [27]–[31]. Briefly, the excitation light pulse source was a Ti:sapphire laser (Mai Tai femtosecond laser, Spectra Physics, Mountain View, CA, USA) associated with a third harmonic generator tuned to 296 nm. The laser frequency was reduced from 80 to 8 MHz using a pulse picker (Spectra Physics). Fluorescence emission was detected by a microchannel plate photomultiplier (Hamamatsu model R3809U-05) through a monochromator (ARC SpectraPro-150) set at 340 nm (Δλ = 15 nm) with the emission polarizer set at the magic angle (54.7°). A time-correlated single-photon counting SPC-430 card (Becker–Hickl, Berlin, Germany) was used for the acquisition. Experiments were performed at 25°C using 5 µM Cq-FABP in buffer C. The average fluorescence lifetime values (τm), as reported in Table 1, were calculated from the lifetime distributions recovered by the maximum entropy method, [29], [32]. For example, Cq-FABP alone was characterized by three fluorescence lifetimes (τ1 = 0.6 ns (6%), τ2 = 2.67 ns (53%), τ3 = 3.89 (41%); τm = 3.04 ns).

FABP4 = target: FABP4; design: method as in PMID 11827549; settings: ref [6]; read-out: Kd of ANS; cited from earlier work
Cq-FABP [4] = target: T1, Cq-FABP; assay: BODIPY-C16 steady-state fluorescence anisotropy titration and competition; type: binding
Experimental: The binding of 4,4-difluoro-5, 7-dimethyl-4-bora-3a, 4a-diaza-s-indacene-3-hexadecanoic acid (BODIPY-C16) to Cq-FABP was investigated by measuring the steady-state fluorescence anisotropy parameter using a Beacon instrument (PanVera, Madison, USA), in a cell thermostatically held at 25°C. The excitation and emission bandpass filters were centered at 488 nm (±6 nm) and 525 nm (±15 nm), respectively. Titration experiments were performed in buffer C (supplemented with 10% DMSO (v/v)) by maintening a constant concentration of BODIPY-C16 (200 nM) and by adding increasing concentrations of Cq-FABP. Using a vertical direction for the polarized excitation source, the steady-state fluorescence anisotropy (r) was calculated according to: [drawing 3] (3) where IV and IH correspond to the parallel (vertical) and perpendicular (horizontal) fluorescence emission intensity components, respectively. The fraction of BODIPY-C16/Cq-FABP complexes (i.e. the fraction of BODIPY-C16 bound to Cq-FABP), fb, was calculated using the following relationship: [drawing 4] (4) where r is the measured fluorescence anisotropy value, rf and rb correspond to the fluorescence anisotropy values of free BODIPY-C16 (ligand in the free state, measured in the absence of Cq-FABP) and Cq-FABP-bound BODIPY-C16 (ligand in the bound state, corresponding to the maximum anisotropy value found at the plateau), respectively. […] The Kd characterizing the BODIPY-C16/Cq-FABP complex (Kd,C16) was calculated by fitting the plot of fb versus [Cq-FABP] using the Graphpad Prism 5.0 software.
The fluorescence anisotropy-based assay was also used in competition experiments to calculate the Kd values (Kd,FA) characterizing non-fluorescent fatty acids. The measurement of the apparent Kd value characterizing the BODIPY-C16/Cq-FABP complex (Kd ^app ,C16) under different concentration conditions for the non-fluorescent FA allows the calculation of Kd,FA according to: [drawing 5] (5) where Kd,C16 corresponds to the Kd characterizing the BODIPY-C16/Cq-FABP complex (in the absence of any non-fluorescent FA) and Kd ^app ,C16 corresponds to the apparent dissociation constant obtained for a given concentration of non-fluorescent FA. The calculation of Kd,FA was also performed in an independent manner by measuring the IC50 value characterizing each non-fluorescent FA. In this approach, the number of complexes corresponding to [C16] = 200 nM and [Cq-FABP] = 5 µM was varied by increasing the concentration of non-fluorescent FA. The IC50 value corresponds to the concentration of non-fluorescent FA that displaces 50% of C16 from the fatty acid binding site of Cq-FABP and is related to Kd,FA through the Cheng-Prusoff relationship: [drawing 6] (6)

Cq-FABP [5] = target: T1, Cq-FABP; assay: DAUDA fluorescence intensity enhancement; type: binding; settings: 5 µM Cq-FABP versus free DAUDA (Fig. S3A)
Text: Cis-parinaric acid and DAUDA were characterized by fluorescence emission in the 380–500 nm region (λmax,em: 410 nm) and in the 480–650 nm region (λmax,em: 540 nm), respectively (excitation wavelengths were set at 320 or 335 nm for cis-parinaric acid or DAUDA, respectively). The fluorescence intensity enhancement upon binding to Cq-FABP was monitored on a Cary-Eclipse spectrofluorimeter as indicated above. All the fluorescence emission intensities were corrected for the inner-filter effect. The emission intensity of a given fluorophore in the presence of Cq-FABP was also systematically corrected for the emission intensity of the free fluorophore. The calculation of Kd,FA was performed by measuring the IC50 value (inhibition concentration 50%) characterizing each non-fluorescent FA. As DAUDA poorly binds to Cq-FABP (see results section), only cis-parinaric acid (CPA) was used for measuring IC50 values. Titration and equilibrium displacement experiments using CPA were performed in buffer C (supplemented with 10% DMSO (v/v)). For the determination of IC50 values, the number of complexes corresponding to [CPA] = 7 µM and [Cq-FABP] = 5 µM was varied by increasing the concentration of non-fluorescent FA. […]

Cq-FABP [6] = target: T1, Cq-FABP; assay: cis-Parinaric acid fluorescence intensity titration and competitive displacement; type: binding
Text: Cis-parinaric acid and DAUDA were characterized by fluorescence emission in the 380–500 nm region (λmax,em: 410 nm) and in the 480–650 nm region (λmax,em: 540 nm), respectively (excitation wavelengths were set at 320 or 335 nm for cis-parinaric acid or DAUDA, respectively). The fluorescence intensity enhancement upon binding to Cq-FABP was monitored on a Cary-Eclipse spectrofluorimeter as indicated above. All the fluorescence emission intensities were corrected for the inner-filter effect. The emission intensity of a given fluorophore in the presence of Cq-FABP was also systematically corrected for the emission intensity of the free fluorophore. The calculation of Kd,FA was performed by measuring the IC50 value (inhibition concentration 50%) characterizing each non-fluorescent FA. As DAUDA poorly binds to Cq-FABP (see results section), only cis-parinaric acid (CPA) was used for measuring IC50 values. Titration and equilibrium displacement experiments using CPA were performed in buffer C (supplemented with 10% DMSO (v/v)). For the determination of IC50 values, the number of complexes corresponding to [CPA] = 7 µM and [Cq-FABP] = 5 µM was varied by increasing the concentration of non-fluorescent FA. The IC50 value corresponds to the concentration of non-fluorescent FA that displaces 50% of CPA from the fatty acid binding site of Cq-FABP and is related to Kd,FA through the Cheng-Prusoff relationship: [drawing 2] (2)

[7] = 200 nM BODIPY-C16, 5 µM Cq-FABP, read-out: IC50 (displaces 50% of BODIPY-C16 from the fatty acid binding site)
[8] = calculated from equilibrium displacement experiments using the fluorescence intensity of ANS (Eq. 1), read-out: Kd,FA
[9] = calculated from the IC50 values (Eq. 2) using the fluorescence intensity of cis-parinaric acid, 7 µM CPA, 5 µM Cq-FABP, read-out: Kd,FA
[10] = calculated from the IC50 values, using Eq. 6, 200 nM BODIPY-C16, 5 µM Cq-FABP, read-out: Kd,FA
[11] = calculated from the Kd app,C16 values, using Eq. 5, 200 nM BODIPY-C16, read-out: Kd,FA

T1 sequence (L0I6Z9 entry or part of it): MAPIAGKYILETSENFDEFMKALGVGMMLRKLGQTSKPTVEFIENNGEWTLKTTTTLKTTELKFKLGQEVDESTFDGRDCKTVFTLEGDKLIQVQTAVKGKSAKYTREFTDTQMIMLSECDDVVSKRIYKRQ

## O=S(=O)(O)c1cccc2cccc(Nc3ccccc3)c12 [ANS, 8-Anilino-1-naphthalenesulfonate]
Cq-FABP [1]; average of the Kd,ANS values from the intensity and FRET procedures, read-out: average Kd,ANS
  Kd: 27.9 µM
Cq-FABP [1]; direct titration, 5 µM Cq-FABP, 25°C, after removing free ANS and non specific contributions (Fig. 2B), read-out: Kd,ANS
  Kd: 30 µM and ~30 µM
Cq-FABP [1]; from displacement amplitude ΔI by PA plotted against [ANS] (Fig. 2D), 5 µM Cq-FABP, read-out: Kd,ANS
  Kd: 26 µM
Cq-FABP [1]; y-intercept of Kd app,ANS versus [PA] linear regression (Fig. 3B), read-out: Kd,ANS
  Kd: 27.8 µM
Cq-FABP [2]; from Δ%FRET versus [ANS] (Fig. 4D), binding to fatty acid binding site only, read-out: Kd,ANS
  Kd: 27.6 µM
Cq-FABP [2]; quenching of Trp steady-state emission by ANS, specific plus non specific binding (Fig. 4A), read-out: apparent Kd of ANS
  Kd: ~100 µM
Cq-FABP [2]; steady-state fluorescence intensities, amplitude between [PA]0 and [PA]+∞ (Fig. 4D)
  Δ%FRET,max (plateau): 10%
Cq-FABP [3]; 5 µM Cq-FABP + 5 µM ANS
  Average fluorescence Lifetime, τm: 2.85 ns
  FRET efficiency: 6.2%
Cq-FABP [3]; 5 µM Cq-FABP + 10 µM ANS
  Average fluorescence Lifetime, τm: 2.75 ns
  FRET efficiency: 9.5%
Cq-FABP [3]; 5 µM Cq-FABP + 50 µM ANS
  Average fluorescence Lifetime, τm: 2.39 ns
  FRET efficiency: 21.4%
Cq-FABP [3]; 5 µM Cq-FABP + 200 µM ANS
  Average fluorescence Lifetime, τm: 2.00 ns
  FRET efficiency: 34.2%
Cq-FABP [3]; [ANS] = 50 µM
  Δ%FRET,max based on lifetime values: 12.5%
Cq-FABP [3]; [ANS] = 200 µM
  Δ%FRET,max based on lifetime values: 11.2%
FABP4
  Kd: 1700 nM

## Cc1cc(C)n2c1C=C1C=CC(CCCCCCCCCCCCCCCC(=O)O)=[N+]1[B-]2(F)F [BODIPY-C16, 4,4-difluoro-5,7-dimethyl-4-bora-3a, 4a-diaza-s-indacene-3-hexadecanoic acid, reference compound]
Cq-FABP [4]; direct titration, 200 nM BODIPY-C16, increasing Cq-FABP, 25°C, 10% DMSO, read-out: Kd,C16
  Kd: 3.1 µM

## CN(C)c1cccc2c(S(=O)(=O)NCCCCCCCCCCC(=O)O)cccc12 [DAUDA, 11-((5-dimethylaminonaphthalene-1-sulphonyl)amino)-undecanoic acid, reference compound]
Cq-FABP [5]
  binding of DAUDA by fluorescence enhancement: does not bind or only poorly binds
Cq-FABP [4]; [7]
  IC50: 263 µM
Cq-FABP [4]; from IC50 according to the Cheng-Prusoff relationship, 200 nM BODIPY-C16, 5 µM Cq-FABP, read-out: apparent Kd of Cq-FABP/DAUDA complex
  Kd: ~250 µM

## CC/C=C\C/C=C\C/C=C\C/C=C\C/C=C\C/C=C\CCC(=O)O [DHA, cis-4,7,10,13,16,19-docosahexaenoic acid]
Cq-FABP [1]; [8]
  Kd: 5.8 ± 0.3 µM
Cq-FABP [6]; [9]
  Kd: 4.4 ± 0.8 µM
Cq-FABP [4]; [7]
  IC50: 7.67 µM
Cq-FABP [4]; [10]
  Kd: 7.4 ± 0.7 µM
Cq-FABP [4]; [11]
  Kd: 6.6 ± 0.5 µM

## CC/C=C\C/C=C\C/C=C\C/C=C\C/C=C\CCCC(=O)O [EPA, cis-5,8,11,14,17-eicosapentaenoic acid]
Cq-FABP [1]; [8]
  Kd: 2.9 ± 0.3 µM
Cq-FABP [4]; [7]
  IC50: 2.29 µM
Cq-FABP [4]; [10]
  Kd: 2.2 ± 0.4 µM
Cq-FABP [4]; [11]
  Kd: 3.5 ± 0.4 µM

## CCCCC/C=C\C/C=C\CCCCCCCC(=O)O [LA, linoleic acid]
Cq-FABP [1]; [8]
  Kd: 3.1 ± 0.5 µM
Cq-FABP [6]; [9]
  Kd: 3.3 ± 0.7 µM
Cq-FABP [4]; [7]
  IC50: 3.53 µM
Cq-FABP [4]; [10]
  Kd: 3.4 ± 0.4 µM
Cq-FABP [4]; [11]
  Kd: 3 ± 0.4 µM

## CCCCCCCC/C=C\CCCCCCCC(=O)O [OA, oleic acid]
Cq-FABP [1]
  Kd: 2.4 ± 0.4 µM
Cq-FABP [6]
  Kd: 1.3 ± 0.6 µM
Cq-FABP [4]
  IC50: 2.23 µM
Cq-FABP [4]; Kd,FA, calculated from the IC50 values, using Eq. 6, 200 nM BODIPY-C16, 5 µM Cq-FABP
  Kd: 2.15 ± 0.4 µM
Cq-FABP [4]; Kd,FA, calculated from the Kd app,C16 values, using Eq. 5, 200 nM BODIPY-C16
  Kd: 2.6 ± 0.3 µM

## CC\C=C/C=C/C=C/C=C\CCCCCCCC(=O)O [cis-parinaric acid, reference compound]
Cq-FABP [6]; fluorescence enhancement upon binding, 5 µM Cq-FABP, buffer C + 10% DMSO (Fig. S3B), read-out: Kd of cis-parinaric acid
  Kd: 31.2 µM
